From patent US7205304B2, “Sulfonyl-Derivatives as novel inhibitors of histone deacetylase” (Janssen Pharmaceutica N.V., priority 2002, dated 2007)
In brackets after ≈: the same amount, converted by molar mass.

Tests used:
[1] = tested on: A2780 ovarian carcinoma cells; experiment: Antiproliferative activity on A2780 cells (MTT); format: cell-based, human; conditions: four days of incubation; for IC50: Homo sapiens, A2780, 96 h, read-out: Cellular activity pIC50 (converted)
Description: Cellular activity of the compounds of formula (I) was determined on A2780 tumour cells using a colorimetric assay for cell toxicity or survival (Mosmann Tim, Journal of Immunological Methods 65: 55–63, 1983)(see example C.2).
All compounds tested were dissolved in DMSO and further dilutions were made in culture medium. Final DMSO concentrations never exceeded 0.1% (v/v) in cell proliferation assays. Controls contained A2780 cells and DMSO without compound and blanks contained DMSO but no cells. MTT was dissolved at 5 mg/ml in PBS. A glycine buffer comprised of 0.1 M glycine and 0.1 M NaCl buffered to pH 10.5 with NaOH (1 N) was prepared (all reagents were from Merck).
The human A2780 ovarian carcinoma cells (a kind gift from Dr. T. C. Hamilton [Fox Chase Cancer Centre, Pennsylvania, USA]) were cultured in RPMI 1640 medium supplemented with 2 mM L-glutamine, 50 μg/ml gentamicin and 10% fetal calf serum. Cells were routinely kept as monolayer cultures at 37° C. in a humidified 5% CO2 atmosphere. Cells were passaged once a week using a trypsin/EDTA solution at a split ratio of 1:40. All media and supplements were obtained from Life Technologies. Cells were free of mycoplasma contamination as determined using the Gen-Probe Mycoplasma Tissue Culture kit (supplier: BioMérieux).
Cells were seeded in NUNC™ 96-well culture plates (Supplier: Life Technologies) and allowed to adhere to the plastic overnight. Densities used for plating were 1500 cells per well in a total volume of 200 μl medium. After cell adhesion to the plates, medium was changed and drugs and/or solvents were added to a final volume of 200 μl. Following four days of incubation, medium was replaced by 200 μl fresh medium and cell density and viability was assessed using an MTT-based assay. To each well, 25 μl MTT solution was added and the cells were further incubated for 2 hours at 37° C. The medium was then carefully aspirated and the blue MTT-formazan product was solubilized by addition of 25 μl glycine buffer followed by 100 μl of DMSO. […] Within an experiment, the results for each experimental condition are the mean of 3 replicate wells. For initial screening purposes, compounds were tested at a single fixed concentration of 10^−6 M. For active compounds, the experiments were repeated to establish full concentration-response curves. For each experiment, controls (containing no drug) and a blank incubation (containing no cells or drugs) were run in parallel. The blank value was subtracted from all control and sample values. For each sample, the mean value for cell growth (in absorbance units) was expressed as a percentage of the mean value for cell growth of the control. […] Herein the effects of test compounds are expressed as pIC50 (the negative log value of the IC50-value).

[2] = molecular target: histone deacetylase (HeLa nuclear extracts); experiment: In vitro assay for inhibition of histone deacetylase; format: biochemical; conditions: [3H]acetylated histone H4 peptide substrate
Description: The in vitro assay for inhibition of histone deacetylase (see example C.1) measures the inhibition of HDAC enzymatic activity obtained with the compounds of formula (I).
HeLa nuclear extracts (supplier: Biomol) were incubated at 60 μg/ml with 2×10^−8 M of radiolabeled peptide substrate. As a substrate for measuring HDAC activity a synthetic peptide, i.e. the amino acids 14–21 of histone H4, was used. The substrate is biotinylated at the NH2-terminal part with a 6-aminohexanoic acid spacer, and is protected at the COOH-terminal part by an amide group and specifically [^3H]acetylated at lysine 16. The substrate, biotin-(6-aminohexanoic)Gly-Ala-([^3H]-acetyl-Lys-Arg-His-Arg-Lys-Val-NH2), was added in a buffer containing 25 mM Hepes, 1 M sucrose, 0.1 mg/ml BSA and 0.01% Triton X-100 at pH 7.4. After 30 min the deacetylation reaction was terminated by the addition of HCl and acetic acid. (final concentration 0.035 mM and 3.8 mM respectively). After stopping the reaction, the free ^3H-acetate was extracted with ethylacetate. After mixing and centrifugation, the radioactivity in an aliquot of the upper (organic) phase was counted in a β-counter.
For each experiment, controls (containing HeLa nuclear extract and DMSO without compound), a blank incubation (containing DMSO but no HeLa nuclear extract or compound) and samples (containing compound dissolved in DMSO and HeLa nuclear extract) were run in parallel. In first instance, compounds were tested at a concentration of 10^−5M. […] In each test the blank value was substracted from both the control and the sample values. The control sample represented 100% of substrate deactylation. For each sample the radioactivity was expressed as a percentage of the mean value of the controls. […] Herein the effects of test compounds are expressed as pIC50 (the negative log value of the IC50-value).

[3] = Kinetic solubility in aqueous media (nephelometry); format: physicochemical; conditions: phosphate citrate buffer, pH 7.4, aqueous buffer, kinetic from dmso stock, phosphate citrate buffer pH 7.4, turbidity of three dilution steps; read-out: Solubility Score
Description: Kinetic solubility in aqueous media measures the ability of a compound to stay in aqueous solution upon dilution (see example C.3).
DMSO-stock solutions are diluted with a single aqueous buffer solvent in 3 consecutive steps. For every dilution turbidity is measured with a nephelometer.
In the first dilution step, 10 μl of a concentrated stock-solution of the active compound, solubilized in DMSO (5 mM), was added to 100 μl phosphate citrate buffer pH 7.4 and mixed. In the second dilution step, an aliquot (20 μl) of the first dilution step was further dispensed in 100 μl phosphate citrate buffer pH 7.4 and mixed. Finally, in the third dilution step, a sample (20 μl) of the second dilution step was further diluted in 100 μl phosphate citrate buffer pH 7.4 and mixed. All dilutions were performed in 96-well plates. Immediately after the last dilution step the turbidity of the three consecutive dilution steps were measured with a nephelometer. Dilution was done in triplicate for each compound to exclude occasional errors. Based on the turbidity measurements a ranking is performed into 3 classes. Compounds with high solubility obtained a score of 3 and for this compounds the first dilution is clear. Compounds with medium solubility obtained a score of 2. For these compounds the first dilution is unclear and the second dilution is clear. […] The solubility of 112 compounds was measured.

IC50 [1] [nM] | Enzyme activity pIC50 [2] | solubility [3] [µM] | Cellular activity pIC50 [1] | Structure (SMILES)
47.9 | 8.358 | > 454 |  | CN(C)Cc1sccc1-c1ccc(S(=O)(=O)N2CCN(c3ncc(C(=O)NO)cn3)CC2)cc1 [Compound 124]
316 | 7.662 | 75.8 to 454 (≈ 40.1 to 241 µg/mL) |  | COc1ccc(-c2ccc(S(=O)(=O)N3CCN(c4ncc(C(=O)NO)cn4)CC3)cc2)c(OC)c1OC [Compound 134]
> 10000 | 6.482 |  |  | O=C(NO)c1ccc(N2CCCN(S(=O)(=O)c3ccc4ccccc4c3)CC2)cc1 [Compound 1]
101 | 6.671 |  |  | COc1ccc(-c2ccc(S(=O)(=O)N3CCN(c4ncc(C(=O)NO)cn4)CC3)cc2)cc1OC [Compound 101]
> 10000 | 5.775 | > 454 |  | Cn1cnc(S(=O)(=O)N2CCN(c3ccc(C(=O)NO)cc3)CC2)c1 [Compound 65]
62.8 | 7.22 | < 75.8 |  | O=C(NO)c1cnc(N2CCN(S(=O)(=O)c3ccc(-c4ccc(Cl)cc4)cc3)CC2)nc1 [Compound 184]
1860 | 6.215 | < 75.8 |  | CCCc1ccc(S(=O)(=O)N2CCN(c3ccc(C(=O)NO)cc3)CC2)cc1 [Compound 63]
6870 | <5 |  |  | O=C(NO)c1ccc(N2CCN(S(=O)(=O)c3cc(C(F)(F)F)cc(C(F)(F)F)c3)CC2)cc1 [Compound 75]
8910 | 5.753 | > 454 |  | Cc1noc(C)c1S(=O)(=O)N1CCN(c2ccc(C(=O)NO)cc2)CC1 [Compound 64]
286 | 8.01 | > 454 |  | O=C(NO)c1ccc(N2CCN(S(=O)(=O)c3ccc4ccccc4c3)CC2)nc1 [Compound 142]
> 10000 | <5 |  |  | O=C1CCC(C(=O)Nc2ccc(N3CCN(S(=O)(=O)c4ccc5ccccc5c4)CC3)cc2)N1 (stereo not shown) [Compound 84]
2320 | 7.631 | 75.8 to 454 (≈ 38.6 to 232 µg/mL) |  | O=C(NO)c1cnc(N2CCN(S(=O)(=O)c3ccc(S(=O)(=O)c4ccccc4)s3)CC2)nc1 [Compound 183]
723 | 7.876 |  |  | CC(C)(C)c1ccc(S(=O)(=O)N2CCN(c3ncc(C(=O)NO)cn3)CC2)cc1 [Compound 92]
991 | 7.125 |  |  | O=C(NO)c1cnc(N2CCCN(S(=O)(=O)c3ccc4ccccc4c3)CC2)nc1 [Compound 141]
119 | 8.565 |  |  | CN(C)CCN(C)Cc1sccc1-c1ccc(S(=O)(=O)N2CCN(c3ncc(C(=O)NO)cn3)CC2)cc1 [Compound 146]
87.1 | 7.939 |  |  | O=C(NO)c1cnc(N2CCN(S(=O)(=O)c3ccc(-c4ccc(OCCN5CCOCC5)cc4)cc3)CC2)nc1 [Compound 155]
 | <5 |  |  | O=C(NO)c1cc([N+](=O)[O-])ccc1N1CCN(S(=O)(=O)c2ccc(Cl)s2)CC1 [Compound 22]
> 10000 | <5 |  |  | O=C(Nc1ccc(N2CCN(S(=O)(=O)c3ccc4ccccc4c3)CC2)cc1)c1ccc[nH]c1=O [Compound 87]

IC50 [1] [nM] | Enzyme activity pIC50 [2] | solubility [3] [µM] | Cellular activity pIC50 [1] | Structure (SMILES)
99.8 | 7.739 |  |  | Nc1ccc(-c2ccc(S(=O)(=O)N3CCN(c4ncc(C(=O)NO)cn4)CC3)cc2)cc1 [Compound 140]
42.7 | 8.553 |  |  | CN(C)Cc1ccc(-c2ccc(S(=O)(=O)N3CCN(c4ncc(C(=O)NO)cn4)CC3)cc2)cc1 [Compound 163]
1740 | <5 |  |  | O=C(NO)c1cnc(N2CCN(S(=O)(=O)c3ccc4ccccc4c3)CC2)nc1N1CCN(S(=O)(=O)c2ccc3ccccc3c2)CC1 [Compound 117]
461 | 7.162 |  |  | O=C(NO)c1cnc(N2CCN(S(=O)(=O)c3ccc(-c4ccc5[nH]ccc5c4)cc3)CC2)nc1 [Compound 132]
 | <5 |  |  | O=C(NO)c1cccc(CN2CCN(S(=O)(=O)c3ccc4ccccc4c3)CC2)c1 [Compound 7]
275 | 8.7 |  |  | O=C(NO)c1cnc(N2CCN(S(=O)(=O)c3ccc(-c4ccccc4OCCN4CCOCC4)cc3)CC2)nc1 [Compound 153]
> 10000 | <5 |  |  | O=C(NCCO)c1ccc(N2CCN(S(=O)(=O)c3ccc4ccccc4c3)CC2)cc1 [Compound 16]
30 | 8.568 |  |  | CN(C)CCCOc1ccc(-c2ccc(S(=O)(=O)N3CCN(c4ncc(C(=O)NO)cn4)CC3)cc2)cc1 [Compound 156]
55.2 | 7.612 |  |  | O=C(NO)c1cnc(N2CCN(S(=O)(=O)c3ccc(-c4ccc(CO)cc4)cc3)CC2)nc1 [Compound 139]
6070 | 6.423 |  |  | O=C(NO)c1ccc(C(=O)N2CCN(S(=O)(=O)c3ccc4ccccc4c3)CC2)cc1 [Compound 89]
117 |  |  | 7.039 | O=C(NO)c1cnc(N2CCN(S(=O)(=O)c3ccc(-c4ccc(CN5CCOCC5)cc4)cc3)CC2)nc1 [Compound 162]
> 10000 | <5 |  |  | O=C(NO)c1cnc(N2CCN(S(=O)(=O)c3ccc(-c4cc(C(F)(F)F)cc(C(F)(F)F)c4)cc3)CC2)nc1 [Compound 180]
> 10000 | <5 |  |  | O=C(Nc1ccc(N2CCN(S(=O)(=O)c3ccc4ccccc4c3)CC2)cc1)c1ccc(=O)[nH]c1 [Compound 86]
7100 | 5.937 |  |  | COc1ccc(OC)c(S(=O)(=O)N2CCN(c3ccc(C(=O)NO)cc3)CC2)c1 [Compound 77]
58.5 | 8.152 |  |  | O=C(NO)c1cnc(N2CCN(S(=O)(=O)c3ccc(-c4ccsc4)cc3)CC2)nc1 [Compound 104]
125 | 7.938 |  |  | O=C(NO)c1cnc(N2CCN(S(=O)(=O)c3ccc4c(Cl)cccc4c3)CC2)nc1 [Compound 97]
> 10000 | <5 |  |  | Cc1cnc(C(=O)Nc2ccc(N3CCN(S(=O)(=O)c4ccc5ccccc5c4)CC3)cc2)cn1 [Compound 85]
